Experimental data reported in publication PMC8271538, “Chemical Modulation of the 1-(Piperidin-4-yl)-1,3-dihydro-2H-benzo[d]imidazole-2-one Scaffold as a Novel NLRP3 Inhibitor” (Molecules, 2021).
“And” between values parts separate entries of the source, which are not always exact repeats. Equal entries are not always repeated. Where two headings read alike, the source gives them in different places. Marks after values point to notes of the source that are not given here.

Key:
[1] = test system: NLRP3-dependent pyroptosis in differentiated THP-1 cells; assay: NLRP3-dependent pyroptosis (LDH release) in PMA-differentiated, LPS-primed, ATP-triggered THP-1 cells; type: cell-based, human; settings: for inhibition at 10 µM: THP-1, 1.5 h, read-out: Pyroptosis Decrease, % inhibition at 10 µM; for inhibition at 10 µM / Pyroptosis Decrease, % inhibition at 10 µM: 10 µM test compound, 1 h before ATP (5 mM, 90 min), vs vehicle-treated cells, mean ± SEM, NA = not active at 10 µM; for inhibition at 1 µM: THP-1, 1 µM test compound (Figure 3)
[2] = test system: IL-1β release in differentiated THP-1 cells; assay: IL-1β release (ELISA) in supernatants of LPS/ATP-treated differentiated THP-1 cells; type: cell-based, human; settings: same experiments as pyroptosis, vs vehicle-treated cells, mean ± SEM; for IL-1β Inhibition, % inhibition at 10 µM: 10 µM test compound; for inhibition at 10 µM: Homo sapiens, THP-1, 10 µM test compound
Protocol: Different techniques could be used to study NLRP3 inhibitors; the use of differentiated THP-1 cells treated with NLRP3 activating stimuli is suitable for the screening of large series of compounds [48]. All the synthesised compounds (Figure 2) were evaluated for their NLRP3 inhibitory activity by measuring their ability to prevent NLRP3-dependent pyroptosis in differentiated THP-1 cells. THP-1 cells were differentiated into macrophages by treatment with phorbol-myristate acetate (PMA; 50 nM; 24 h) and then treated with lipopolysaccharide (LPS; 10 µg/mL; 4 h) to promote NLRP3 expression. The cells were then incubated with test compounds at the fixed concentration of 10 µM for 1 h. Test compounds were dissolved in serum free medium containing 0.1% DMSO as the vehicle. NLRP3 was activated by the addition of ATP (5 mM), and the pyroptotic cell death was evaluated after 1.5 h by measuring the lactate dehydrogenase (LDH) released in the cell supernatants. The obtained results, expressed as pyroptosis% decrease with respect to vehicle-treated cells, are collected in Table 1. In the same experiments, the release of IL-1β was measured via an ELISA assay and the results, expressed as % inhibition of IL-1β release versus vehicle-treated cells, are reported in Table 1. Finally, the cytotoxicity of the synthesised compounds was evaluated by MTT assay after treatment of THP-1 cells with increasing concentration of test compounds (0.1–100 µM) for 72 h. […] The structural modulation of compound 2 was then carried out in order to understand whether it was possible to restore/increase the activity without the re-introduction of a Michael acceptor substructure.
Human myelomonocytic THP-1 cells were cultured in RPMI 1640 medium (Aurogene, Rome, Italy) supplemented with fetal bovine serum (10%; Aurogene), L-glutamine (2 mM; Aurogene), penicillin (100 IU/mL; Aurogene) and streptomycin ([…]; Aurogene). Cell culture medium was replaced every 2−3 days, and the cultures were maintained at 37 °C and 5% CO2 in a fully humidified incubator. The day before each experiment, cells were plated in 48-well culture plates (90.000 cells/well) and were differentiated by treatment with PMA (50 nM, 24 h; Sigma-Aldrich). PMA-differentiated THP-1 cells were washed twice with phosphate-buffered saline (PBS) and primed with LPS (10 μg/mL, 4 h; Sigma-Aldrich) in serum-free medium. Cells were then incubated with compounds dissolved in medium containing 0.1% DMSO for 1 h and cell death was triggered with ATP (5 mM, 90 min; Sigma-Aldrich). MCC950 (Sigma-Aldrich batch #45216 and batch #85021 and from Crysdot (product n. CD31002496; OS05876-18070932) was used in the experiments.
IL-1β release was quantified in differentiated THP-1 supernatant, obtained as previously described, using Human IL-1 beta Uncoated ELISA kit (Invitrogen, Waltham, MA, USA), according to the manufacture’s instruction.

human recombinant NLRP3 = target: T1, human recombinant NLRP3 (Homo sapiens, UniProt Q96P20); assay: In vitro NLRP3 ATPase activity, on-bead ADP-Glo assay with immobilised NLRP3-GFP; type: biochemical; settings: for Inhibition of NLRP3 ATPase activity (% reduction in ATP hydrolysis relative to vehicle control) / inhibition at 100 µM: 100 μM compound, ATP 800 μM, mean ± SEM, n = 4; for inhibition at 100 µM: read-out: Inhibition of NLRP3 ATPase activity (% reduction in ATP hydrolysis relative to vehicle control); for NLRP3 ATPase inhibition at 1 mM compared with 100 µM: 1 mM vs 100 µM compound, data not shown
T1 construct: made in house; host or cells: HEK293T cells (transient transfection, captured from lysate on GFP-Trap Sepharose)

DNBS-induced colitis = test system: DNBS-induced colitis; set-up: method as in PMID 28410442, PMID 30559669; settings: oral administration in mice at both 50 and 25 mg/kg; cited from earlier work
[3] = test system: isolated recombinant NLRP3; set-up: method as in PMID 28410442; settings: cited from earlier work
[4] = 72 h treatment, 0.1–100 µM, MTT, TC50 ± SEM of three experiments

T1 sequence (Q96P20 whole entry): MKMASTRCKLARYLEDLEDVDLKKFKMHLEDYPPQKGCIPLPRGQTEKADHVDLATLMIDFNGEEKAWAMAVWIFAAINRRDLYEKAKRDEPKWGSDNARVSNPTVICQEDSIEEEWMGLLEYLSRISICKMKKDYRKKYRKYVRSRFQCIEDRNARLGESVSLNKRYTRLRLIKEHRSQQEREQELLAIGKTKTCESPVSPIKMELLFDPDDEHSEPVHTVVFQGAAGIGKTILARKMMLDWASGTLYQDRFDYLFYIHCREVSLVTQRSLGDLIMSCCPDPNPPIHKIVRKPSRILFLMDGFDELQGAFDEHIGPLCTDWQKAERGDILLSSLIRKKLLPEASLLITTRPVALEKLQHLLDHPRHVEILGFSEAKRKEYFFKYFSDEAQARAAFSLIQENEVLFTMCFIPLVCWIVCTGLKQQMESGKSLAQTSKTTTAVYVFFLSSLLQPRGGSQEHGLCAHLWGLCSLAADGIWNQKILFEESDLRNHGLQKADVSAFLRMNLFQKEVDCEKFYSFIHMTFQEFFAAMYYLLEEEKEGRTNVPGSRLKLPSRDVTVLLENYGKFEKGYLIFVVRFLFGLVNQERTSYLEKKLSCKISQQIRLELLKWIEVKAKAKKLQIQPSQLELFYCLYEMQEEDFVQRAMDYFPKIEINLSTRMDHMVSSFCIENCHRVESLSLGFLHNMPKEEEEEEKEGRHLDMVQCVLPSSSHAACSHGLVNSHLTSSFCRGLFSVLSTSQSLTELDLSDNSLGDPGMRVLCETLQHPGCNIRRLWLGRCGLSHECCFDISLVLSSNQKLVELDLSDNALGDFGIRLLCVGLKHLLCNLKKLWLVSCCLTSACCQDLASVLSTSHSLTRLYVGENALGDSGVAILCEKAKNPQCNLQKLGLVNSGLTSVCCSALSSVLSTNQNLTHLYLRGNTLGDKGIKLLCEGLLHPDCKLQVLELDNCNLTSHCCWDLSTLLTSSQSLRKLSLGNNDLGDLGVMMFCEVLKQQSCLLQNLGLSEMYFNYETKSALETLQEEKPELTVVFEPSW

Inhibition of NLRP3 ATPase activity (% reduction in ATP hydrolysis relative to vehicle control) (human recombinant NLRP3) | inhibition at 100 µM (human recombinant NLRP3) | Molecule | inhibition at 10 µM ([1]; Homo sapiens) | Cytotoxicity TC50 (THP-1 cells; [4]) | inhibition at 10 µM [2] | other results
– | – | O=C(CCc1ccccc1Cl)NCCC(=O)N1CCC(n2c(=O)[nH]c3ccccc32)CC1 [Compound 7, 3-(2-chlorophenyl)-N-{3-oxo-3-[4-(2-oxo-2,3-dihydro-1,3-benzodiazol-1-yl)piperidin-1-yl]propyl}propanamide] | ~35% | 62.4 ± 13.3 µM | 18 to 21% | IL-1β Inhibition, % inhibition at 10 µM ([2]; 10 µM): 17.8 ± 7.5%
– | – | CC(C)(O)c1coc(S(=O)(=O)NC(=O)Nc2c3c(cc4c2CCC4)CCC3)c1 [MCC950, reference compound] | – | >100 µM | 37.6 ± 6% | –
reduced the inhibitory potential | – | O=C(CCc1ccccc1Cl)n1c(=O)n(Cc2nn[nH]n2)c2ccccc21 [Compound 19, 1-((2H-tetrazol-5-yl)methyl)-3-(3-(2-chlorophenyl)propanoyl)-1,3-dihydro-2H-benzo[d]imidazol-2-one] | 26.2 ± 1.6% | >100 µM | < 10% | –
– | 28.4 ± 2.6% | C=C(Cc1ccccc1Cl)C(=O)N1CCC(n2c(=O)[nH]c3ccccc32)CC1 [Compound 1, 1-(1-(2-(2-chlorobenzyl)acryloyl)piperidin-4-yl)-1,3-dihydro-2H-benzo[d]imidazol-2-one] | 24.9 ± 6.3% | 32.9 ± 19 µM and 32.9 ± 19.0 µM | 19.4 ± 0.4% | IL-1β Inhibition, % inhibition at 10 µM ([2]; 10 µM): 14.4 ± 5.0%
restored the ATPase inhibition | 18.3 ± 3.2% | O=C(CCc1ccccc1Cl)NCCn1c(=O)[nH]c2ccccc21 [Compound 9, 3-(2-chlorophenyl)-N-(2-(2-oxo-2,3-dihydro-1H-benzo[d]imidazol-1-yl)ethyl) propanamide] | 39.2 ± 6.6% | 87.1 ± 1.9 µM | 20.3 ± 1.3% | inhibition at 1 µM ([1]; Homo sapiens): 20 to 30%; NLRP3 ATPase inhibition at 1 mM compared with 100 µM (human recombinant NLRP3): no significant differences
– | 28.6 ± 5.5% | O=C(CCc1ccccc1Cl)N1CCC(n2c(=O)[nH]c3ccccc32)CC1 [Compound 2, 1-(1-(3-(2-chlorophenyl)propanoyl)piperidin-4-yl)-1,3-dihydro-2H-benzo[d]imidazol-2-one] | 14.9 ± 5.8% | 64.1 ± 4.7 µM | 10.3 ± 5.8% | inhibition at 50 µM ([1]; Homo sapiens, THP-1, 50 µM test compound): 29.1 ± 4.8%
– | – | O=C(O)Cn1c(=O)n(CCc2ccccc2Cl)c2ccccc21 [Compound 23, 2-(3-(2-chlorophenethyl)-2-oxo-2,3-dihydro-1H-benzo[d]imidazol-1-yl)acetic acid] | 26.3 ± 3.5% | 62.4 ± 1.2 µM | 13.9 ± 16.4% | –
– | – | C=C(Cc1ccccc1Cl)C(=O)OCC [INF39] | – | – | – | Prevention of DNBS-induced colitis (DNBS-induced colitis): able to prevent DNBS-induced colitis; Inhibition of ATP hydrolysis by NLRP3 [3]: inhibited ATP hydrolysis
– | – | Ethyl 2-(3-(3-(2-chlorophenyl)propanoyl)-2-oxo-2,3-dihydro-1H-benzo[d] imidazol-1-yl)propanoate [Compound 20] | – | – | – | Pyroptosis Decrease, % inhibition at 10 µM [1]: 24.4 ± 6.8%; Cytotoxicity TC50 (THP-1 cells): 57.6 ± 3.2 µM; IL-1β Inhibition, % inhibition at 10 µM [2]: 13.8 ± 5.4%
– | – | CNC(=NC#N)NC1CCN(C(=O)CCc2ccccc2Cl)CC1 [Compound 12, 1-(1-(3-(2-chlorophenyl)propanoyl)piperidin-4-yl)-2-cyano-3-methylguanidine] | 15.7 ± 9.1% | >100 µM | 19 ± 0.4% | –
– | – | O=C(CCc1ccccc1Cl)n1c(=O)[nH]c2ccccc21 [Compound 16, 1-(3-(2-chlorophenyl)propanoyl)-1,3-dihydro-2H-benzo[d]imidazol-2-one] | 37.7 ± 7.6% | 77.3 ± 3.7 µM | 14.9 ± 8.8% | –
22.5 ± 1.4% | – | 3-(2-chlorophenyl)-N-(2-oxo-2-(4-(2-oxo-2,3-dihydro-1H-benzo[d]imidazol-1-yl)piperidin-1-yl)ethyl)propenamide [Compound 6] | – | – | – | Pyroptosis Decrease, % inhibition at 10 µM [1]: about 35%; Pyroptosis Decrease, % inhibition at 10 µM ([1]; listed as 6 (INF148)): 35.0 ± 6.9 ^d %; Cytotoxicity TC50 (THP-1 cells): 61.7 ± 1.0 µM; IL-1β Inhibition, % inhibition at 10 µM ([2]; 10 µM): 18–21%; IL-1β Inhibition, % inhibition at 10 µM ([2]; listed as 6 (INF148), 10 µM): 21.0 ± 3.2 ^d %; NLRP3 ATPase inhibition at 1 mM compared with 100 µM (human recombinant NLRP3): no significant differences
inactive | – | CCOC(=O)Cn1c(=O)n(C(=O)CCc2ccccc2Cl)c2ccccc21 [Compound 17, Ethyl 2-(3-(3-(2-chlorophenyl)propanoyl)-2-oxo-2,3-dihydro-1H-benzo[d]-imidazol-1-yl)acetate] | 25.1 ± 4% | 95.4 ± 1.1 µM | 24.2 ± 11.2% | –
able to reduce ATPase activity | 27.2 ± 6.3% | O=C(O)Cn1c(=O)n(C(=O)CCc2ccccc2Cl)c2ccccc21 [Compound 18, 2-(3-(3-(2-chlorophenyl)propanoyl)-2-oxo-2,3-dihydro-1H-benzo[d]-imidazol-1-yl)acetic acid] | 36.4 ± 11.1% | >100 µM | 21.1 ± 3.1% | Pyroptosis Decrease, % inhibition at 10 µM [1]: active; inhibition at 1 µM ([1]; Homo sapiens): 20 to 30%; NLRP3 ATPase inhibition at 1 mM compared with 100 µM (human recombinant NLRP3): no significant differences

Molecule | Inhibition of NLRP3 ATPase activity (% reduction in ATP hydrolysis relative to vehicle control) (human recombinant NLRP3) | inhibition at 100 µM (human recombinant NLRP3) | inhibition at 10 µM ([1]; Homo sapiens) | Cytotoxicity TC50 (THP-1 cells; [4]) | inhibition at 10 µM [2] | other results
N#CN=C(NCc1ccccc1)NC1CCN(C(=O)CCc2ccccc2Cl)CC1 [Compound 13, 1-benzyl-3-(1-(3-(2-chlorophenyl)propanoyl)piperidin-4-yl)-2-cyanoguanidine] | significant inhibition of ATPase activity | 26.5 ± 3.1% | 45 ± 8.8% | 85.7 ± 5.6 µM | 25.2 ± 4.9% | Pyroptosis Decrease, % inhibition at 10 µM [1]: able to inhibit; inhibition at 1 µM ([1]; Homo sapiens): 20 to 30%; IL-1β Inhibition, % inhibition at 10 µM ([2]; 10 µM): able to inhibit; NLRP3 ATPase inhibition at 1 mM compared with 100 µM (human recombinant NLRP3): no significant differences
